Data on 31 compounds can be found in patent publication US9546164B2 (GENENTECH, INC., priority 2013, dated 2017).

Counter-ions that a name gives are not always drawn.

For the first assay, the target named is hNav1.7 (Homo sapiens (Human), UniProt Q15858). The assay can be described thus: Tritiated sulfonamide competitive binding to membranes from cells expressing hNav1.7 and the β1 subunit.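 Note: Filter-bound radioactivity counted by liquid scintillation, nonspecific binding defined with excess unlabelled ligand, IC50 fitted to percent inhibition of specific binding.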
hNav1.7, sequence (Q15858 other isoform, or with tags, fused parts or gaps): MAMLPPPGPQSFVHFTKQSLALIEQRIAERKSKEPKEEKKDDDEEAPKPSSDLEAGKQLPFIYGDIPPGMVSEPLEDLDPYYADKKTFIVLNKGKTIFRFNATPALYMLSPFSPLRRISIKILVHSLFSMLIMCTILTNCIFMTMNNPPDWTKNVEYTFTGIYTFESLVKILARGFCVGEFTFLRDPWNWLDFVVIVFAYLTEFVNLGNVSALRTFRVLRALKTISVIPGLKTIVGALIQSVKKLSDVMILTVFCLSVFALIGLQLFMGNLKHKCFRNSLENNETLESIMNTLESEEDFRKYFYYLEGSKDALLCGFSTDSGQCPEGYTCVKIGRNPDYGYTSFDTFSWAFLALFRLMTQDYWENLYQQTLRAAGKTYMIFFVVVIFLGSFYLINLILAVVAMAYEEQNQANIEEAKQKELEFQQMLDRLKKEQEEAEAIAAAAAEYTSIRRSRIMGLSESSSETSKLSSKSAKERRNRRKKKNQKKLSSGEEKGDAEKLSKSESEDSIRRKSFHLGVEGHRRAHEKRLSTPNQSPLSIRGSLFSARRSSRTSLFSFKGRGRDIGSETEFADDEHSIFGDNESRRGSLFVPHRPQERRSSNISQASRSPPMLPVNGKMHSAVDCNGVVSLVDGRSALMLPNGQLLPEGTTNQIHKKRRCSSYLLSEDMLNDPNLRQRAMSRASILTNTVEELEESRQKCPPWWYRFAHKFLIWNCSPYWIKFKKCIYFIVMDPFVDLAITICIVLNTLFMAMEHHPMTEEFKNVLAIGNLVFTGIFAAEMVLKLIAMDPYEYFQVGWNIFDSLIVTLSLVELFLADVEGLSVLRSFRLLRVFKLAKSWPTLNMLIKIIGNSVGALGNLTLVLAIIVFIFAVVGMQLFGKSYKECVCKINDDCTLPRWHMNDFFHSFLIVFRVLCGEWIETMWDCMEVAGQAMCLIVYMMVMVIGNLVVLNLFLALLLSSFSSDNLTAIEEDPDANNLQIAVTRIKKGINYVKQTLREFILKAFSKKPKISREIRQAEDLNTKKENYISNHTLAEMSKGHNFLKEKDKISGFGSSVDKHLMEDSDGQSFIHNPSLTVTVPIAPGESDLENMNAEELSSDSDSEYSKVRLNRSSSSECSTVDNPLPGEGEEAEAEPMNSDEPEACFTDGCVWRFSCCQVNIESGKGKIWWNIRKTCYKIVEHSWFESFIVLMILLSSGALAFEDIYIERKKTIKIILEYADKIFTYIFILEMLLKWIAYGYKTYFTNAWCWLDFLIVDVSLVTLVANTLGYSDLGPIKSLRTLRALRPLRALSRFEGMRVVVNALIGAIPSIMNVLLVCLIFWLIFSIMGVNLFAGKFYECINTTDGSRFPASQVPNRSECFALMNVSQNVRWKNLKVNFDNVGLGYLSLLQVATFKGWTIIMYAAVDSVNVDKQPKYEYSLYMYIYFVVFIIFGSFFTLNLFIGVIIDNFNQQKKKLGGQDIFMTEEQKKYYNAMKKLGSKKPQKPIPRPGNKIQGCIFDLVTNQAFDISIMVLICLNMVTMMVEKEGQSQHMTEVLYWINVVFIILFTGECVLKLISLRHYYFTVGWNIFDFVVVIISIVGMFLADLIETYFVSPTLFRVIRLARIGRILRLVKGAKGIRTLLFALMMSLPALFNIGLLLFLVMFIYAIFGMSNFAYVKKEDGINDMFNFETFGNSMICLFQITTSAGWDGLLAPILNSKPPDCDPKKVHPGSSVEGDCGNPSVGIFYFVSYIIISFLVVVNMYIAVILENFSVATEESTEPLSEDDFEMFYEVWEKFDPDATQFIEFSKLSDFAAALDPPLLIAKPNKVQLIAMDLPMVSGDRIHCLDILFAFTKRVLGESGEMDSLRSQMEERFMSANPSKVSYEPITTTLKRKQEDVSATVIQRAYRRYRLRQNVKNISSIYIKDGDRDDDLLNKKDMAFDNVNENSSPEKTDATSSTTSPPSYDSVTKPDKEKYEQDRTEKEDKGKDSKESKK
hNav1.7, sequence (Q07699 19-218 partner): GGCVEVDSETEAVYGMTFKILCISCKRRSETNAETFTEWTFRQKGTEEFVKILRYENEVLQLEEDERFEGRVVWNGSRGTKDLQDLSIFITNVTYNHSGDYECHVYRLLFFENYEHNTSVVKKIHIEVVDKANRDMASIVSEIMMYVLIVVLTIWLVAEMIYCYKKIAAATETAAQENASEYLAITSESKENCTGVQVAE
Settings: not given
As for `O=C(NS(=O)(=O)N1CCC1)c1cc(C2CC2)c(O[C@@H]2CCCN(Cc3ccc(Cl)c(Cl)c3)C2)cc1F` [Example 19, (R)—N-(azetidin-1-ylsulfonyl)-5-cyclopropyl-4-((1-(3,4-dichlorobenzyl)piperidin-3-yl)oxy)-2-fluorobenzamide], the IC50 was determined as 4.9 nM.
On the same count and under the same terms, for `CS(=O)(=O)NC(=O)c1cc(C2CC2)c(CN2CCC(Oc3cc(C(F)(F)F)cc(Cl)c3F)CC2)cc1F` [Example 536, 4-((4-(3-Chloro-2-fluoro-5-(trifluoromethyl)phenoxy)piperidin-1-yl)methyl)-5-cyclopropyl-2-fluoro-N-(methylsulfonyl)benzamide, trifluoroacetic acid salt] the value was 5 nM.
The same measure, in the same setting: for `C[C@H](c1cc(Cl)cc(Cl)c1)N1C[C@@H]2C[C@H]1CN2Cc1cc(F)c(C(=O)NS(=O)(=O)C2CC2)cc1C1CC1` (single isomer, unassigned) [Example 563, trifluoroacetic acid salt] the value was 4.2 nM.
As for `O=C(NS(=O)(=O)N1CCC1)c1cc(C2CC2)c(O[C@@H]2CCCN(Cc3ccccc3Cl)C2)cc1F` [Example 25, (R)—N-(azetidin-1-ylsulfonyl)-4-((1-(2-chlorobenzyl)piperidin-3-yl)oxy)-5-cyclopropyl-2-fluorobenzamide], the IC50 stood at 3.2 nM.
The same measure, in the same setting: for `O=C(NS(=O)(=O)C1CC1)c1cc(C2CC2)c(CN2CCC(Oc3ccc(Cl)c(Cl)c3)CC2)cc1F` [Example 510, 5-cyclopropyl-N-(cyclopropylsulfonyl)-4-((4-(3,4-dichlorophenoxy)piperidin-1-yl)methyl)-2-fluorobenzamide, trifluoroacetic acid salt] the value was 9.1 nM.

The assay is the same for the next values; noted with them: read-out: Ligand Binding Assay; 100 pM [3H]compound, membranes with hNav1.7 and β1 subunit, 18 h, room temperature.
On to `Cc1nc(CN2CCC(COc3cc(F)c(C(=O)NS(=O)(=O)C4CC4)cc3C3CC3)CC2)cs1` [Example 354, 5-cyclopropyl-N-(cyclopropylsulfonyl)-2-fluoro-4-((1-((2-methylthiazol-4-yl)methyl)piperidin-4-yl)methoxy)benzamide, trifluoroacetic acid salt], for which the IC50 came out at 2670 nM.
On the same count and under the same terms, for `O=C(NS(=O)(=O)N1CCC1)c1cc(C2CC2)c(OCC2CCN(Cc3cc(C(F)(F)F)cc(Cl)c3F)CC2)cc1F` [Example 583, N-(azetidin-1-ylsulfonyl)-4-((1-(3-chloro-2-fluoro-5-(trifluoromethyl)benzyl)piperidin-4-yl)methoxy)-5-cyclopropyl-2-fluorobenzamide] the value was 3.4 nM; for `CS(=O)(=O)NC(=O)c1cc(C2CC2)c(O[C@@H]2CCCN(Cc3cc(C(F)(F)F)cc(Cl)c3F)C2)cc1F` [Example 311, (R)-4-((1-(3-chloro-2-fluoro-5-(trifluoromethyl)benzyl)piperidin-3-yl)oxy)-5-cyclopropyl-2-fluoro-N-(methylsulfonyl)benzamide], 2.9 nM.
The same measure, in the same setting: for `CC1(COc2cc(F)c(C(=O)NS(=O)(=O)C3CC3)cc2C2CC2)CN(C(c2ccccc2)c2cc(Cl)cc(Cl)c2)C1` (stereo not shown) [Example 421, 5-cyclopropyl-N-(cyclopropylsulfonyl)-4-((1-((3,5-dichlorophenyl)(phenyl)methyl)-3-methylazetidin-3-yl)methoxy)-2-fluorobenzamide, trifluoroacetic acid salt] the value was 2.5 nM.
As to `CCS(=O)(=O)NC(=O)c1cc(C2CC2)c(OCC2CCN([C@](C)(COC)c3cc(Cl)cc(Cl)c3)CC2)cc1F` (single isomer, unassigned) [Example 203], the IC50 stood at 3.6 nM.
Same read-out and setting: for `O=C(NS(=O)(=O)C1CC1)c1cc(C2CC2)c(CN2CCO[C@@H](Cc3ccc(Cl)c(Cl)c3)C2)cc1F` [Example 462] the value was 36.3 nM.
For the compound `C[C@@H](c1cc(Cl)cc(Cl)c1)N1CCC(F)(COc2cc(F)c(C(=O)NS(=O)(=O)C3CC3)cc2C2CC2)CC1` [Example 350], the IC50 came out at 4.5 nM.
On the same count and under the same terms, with `C[C@@H]1CC[C@@H](Oc2cc(F)c(C(=O)NS(=O)(=O)N3CCC3)cc2C2CC2)CN1Cc1ccc(F)cc1Cl` [Example 322, N-(azetidin-1-ylsulfonyl)-4-(((3R,6R)-1-(2-chloro-4-fluorobenzyl)-6-methylpiperidin-3-yl)oxy)-5-cyclopropyl-2-fluorobenzamide] the figure was 1.9 nM.
The same measure, in the same setting: for `O=C(NS(=O)(=O)C1CC1)c1cc(C2CC2)c(CN2CCC[C@H](Oc3cc(Cl)cc(Cl)c3)C2)cc1F` [Example 53, (S)-5-cyclopropyl-N-(cyclopropylsulfonyl)-4-((3-(3,5-dichlorophenoxy)-piperidin-1-yl)methyl)-2-fluorobenzamide] the value was 8 nM.
With `O=C(NS(=O)(=O)C1CC1)c1cc(C2CC2)c(OCC2CCN(C3(c4cc(Cl)cc(Cl)c4)COC3)CC2)cc1F` [Example 175, 5-Cyclopropyl-N-(cyclopropylsulfonyl)-4-((1-(3-(3,5-dichlorophenyl)oxetan-3-yl)piperidin-4-yl)methoxy)-2-fluorobenzamide], the IC50 was 5.2 nM.
The same measure, in the same setting: for `O=C(NS(=O)(=O)C1CC1)c1cc(C2CC2)c(O[C@@H]2CCCN(c3ccc(F)cn3)C2)cc1F` [Example 494, (R)-5-cyclopropyl-N-(cyclopropylsulfonyl)-2-fluoro-4-((1-(5-fluoropyridin-2-yl)piperidin-3-yl)oxy)benzamide, trifluoroacetic acid salt] the value was 52.7 nM; for `C[C@@H](c1ccc(F)cc1Cl)N1CCC[C@@H](Oc2cc(F)c(C(=O)NS(C)(=O)=O)cc2C2CC2)C1` [Example 295, 4-(((R)-1-((S)-1-(2-chloro-4-fluorophenyl)ethyl)piperidin-3-yl)oxy)-5-cyclopropyl-2-fluoro-N-(methylsulfonyl)benzamide], 2.3 nM.
On the same count and under the same terms, for `C[C@@H](c1ccc(Cl)c(Cl)c1)N1CCC(C)(COc2cc(F)c(C(=O)NS(C)(=O)=O)cc2C2CC2)CC1` (single isomer, unassigned) [Example 219] the value was 8.3 nM; for `CS(=O)(=O)NC(=O)c1cc(C2CC2)c(OCC2CCN(Cc3ccc(F)cc3Cl)CC2)cc1F` [Example 105, 4-((1-(2-Chloro-4-fluorobenzyl)piperidin-4-yl)methoxy)-5-cyclopropyl-2-fluoro-N-(methylsulfonyl)benzamide], 16.3 nM; for `CS(=O)(=O)NC(=O)c1cc(C2CC2)c(OC[C@@H]2CCN(Cc3cc(Cl)cc(Cl)c3)C(=O)C2)cc1F` (single isomer, unassigned) [Example 234], 170 nM.
Still for that read-out and setting: with `CS(=O)(=O)NC(=O)c1cc(C2CC2)c(OCC2CCN(Cc3cc(Cl)c(F)cc3F)CC2)cc1F` [Example 455, trifluoroacetic acid salt] the figure was 8.5 nM.
With `CS(=O)(=O)NC(=O)c1cc(C2CC2)c(OCC2CN([C@H](c3ccccc3)c3ccc(F)cc3)C2)cc1F` [Example 145, (R)-5-Cyclopropyl-2-fluoro-4-((1-((4-fluorophenyl)(phenyl)methyl)-azetidin-3-yl)methoxy)-N-(methylsulfonyl)benzamide], the IC50 amounted to 6.22 nM.
With `O=C(NS(=O)(=O)N1CCC1)c1cc(C2CC2)c(OCC2CCN(C3(c4cc(Cl)cc(Cl)c4)COC3)CC2)cc1F` [Example 176], the IC50 amounted to 9.1 nM.
Same read-out and setting: for `COC[C@H](c1cc(Cl)cc(Cl)c1)N1CCC[C@@H](Oc2cc(F)c(C(=O)NS(C)(=O)=O)cc2C2CC2)C1` [Example 448, 5-cyclopropyl-4-(((R)-1-((S)-1-(3,5-dichlorophenyl)-2-methoxyethyl)piperidin-3-yl)oxy)-2-4-N-(methylsulfonyl)benzamide, trifluoroacetic acid salt] the value was 10.5 nM.
As to `CS(=O)(=O)NC(=O)c1cc(C2CC2)c(OCC2CCN(C(=O)c3ccccc3)CC2)cc1F` [Example 197, 4-((1-Benzoylpiperidin-4-yl)methoxy)-5-cyclopropyl-2-fluoro-N-(methylsulfonyl)benzamide], the IC50 worked out at 3200 nM.
On the same count and under the same terms, for `CS(=O)(=O)NC(=O)c1cc(C2CC2)c(OCC2CN(Cc3ccc(Cl)c(F)c3)C2)cc1F` [Example 133, 4-((1-(4-Chloro-3-fluorobenzyl)azetidin-3-yl)methoxy)-5-cyclopropyl-2-fluoro-N-(methylsulfonyl)benzamide] the value was 118 nM; for `CS(=O)(=O)NC(=O)c1cc(C2CC2)c(OC[C@@H]2C[C@H]3CC[C@@H](C2)N3Cc2cc(C(F)(F)F)cc(Cl)c2F)cc1F` [Example 398, 4-(((1R,3S,5S)-8-(3-chloro-2-fluoro-5-(trifluoromethyl)benzyl)-8-azabicyclo[3.2.1]octan-3-yl)methoxy)-5-cyclopropyl-2-fluoro-N-(methylsulfonyl)benzamide, trifluoroacetic acid salt], 5.1 nM.
On the same count and under the same terms, with `O=C(NS(=O)(=O)N1CCC1)c1cc(C2CC2)c(OCC2CC3CCC(C2)N3Cc2ccccc2Cl)cc1F` (stereo not shown) [Example 47, N-(azetidin-1-ylsulfonyl)-4-((8-(2-chlorobenzyl)-8-azabicyclo[3.2.1]octan-3-yl)methoxy)-5-cyclopropyl-2-fluorobenzamide] the figure was 25.1 nM; with `C[C@H](c1cc(Cl)cc(Cl)c1)N1CC(COc2cc(F)c(C(=O)NS(C)(=O)=O)cc2C2CC2)C1` [Example 121, (R)-5-Cyclopropyl-4-((1-(1-(3,5-dichlorophenyl)ethyl)azetidin-3-yl)methoxy)-2-fluoro-N-(methylsulfonyl)benzamide], 30.1 nM.
On the same count and under the same terms, for `CS(=O)(=O)NC(=O)c1cc(C2CC2)c(O[C@@H]2CCCN(Cc3cc(C(F)(F)F)cc(C4CC4)n3)C2)cc1F` [Example 305, (R)-5-cyclopropyl-4-((1-((6-cyclopropyl-4-(trifluoromethyl)pyridin-2-yl)methyl)piperidin-3-yl)oxy)-2-fluoro-N-(methylsulfonyl)benzamide] the value was 3.9 nM.

The assay is the same for the next values; noted with them: read-out: Ligand Binding Assay; 100 pM [3H]compound, membranes with hNav1.7 and β1 subunit, 18 h, room temperature; trifluoroacetic acid salt.
Take `CS(=O)(=O)NC(=O)c1cc(C2CC2)c(CN2[C@@H]3CC[C@H]2C[C@@H](Oc2ncc(C(F)(F)F)cc2Cl)C3)cc1F` [Example 552, 4-(((1R,3r,5S)-3-((3-chloro-5-(trifluoromethyl)pyridin-2-yl)oxy)-8-azabicyclo[3.2.1]octan-8-yl)methyl)-5-cyclopropyl-2-fluoro-N-(methylsulfonyl)benzamide, trifluoroacetic acid salt]: the IC50 came to 7 nM.
